The assay addresses T1, L-galactono-1,4-lactone dehydrogenase (GalLDH) from pepper fruits (Capsicum annuum, UniProt Q6QD76).
T1 sequence (Q6QD76 38-586): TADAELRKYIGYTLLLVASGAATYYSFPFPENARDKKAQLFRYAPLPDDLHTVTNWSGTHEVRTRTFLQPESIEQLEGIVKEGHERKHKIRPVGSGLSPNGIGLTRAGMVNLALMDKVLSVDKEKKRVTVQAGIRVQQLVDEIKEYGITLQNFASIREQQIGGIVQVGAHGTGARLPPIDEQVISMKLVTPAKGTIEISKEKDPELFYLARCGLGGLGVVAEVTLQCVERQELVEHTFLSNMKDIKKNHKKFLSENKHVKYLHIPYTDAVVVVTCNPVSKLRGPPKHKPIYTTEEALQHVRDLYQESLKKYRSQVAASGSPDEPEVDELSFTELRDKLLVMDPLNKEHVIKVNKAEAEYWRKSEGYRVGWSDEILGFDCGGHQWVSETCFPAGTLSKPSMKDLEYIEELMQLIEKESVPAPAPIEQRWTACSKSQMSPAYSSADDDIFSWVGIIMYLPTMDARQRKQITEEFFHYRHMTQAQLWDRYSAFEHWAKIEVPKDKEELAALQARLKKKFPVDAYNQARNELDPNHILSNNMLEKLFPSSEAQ
Description: spectrophotometric cytochrome c reduction at […] nm. In kind it is biochemical. To be noted: read-out: % inhibition at 0.5 mM and 2 mM.

In the case of `N[C@@H](CCC(=O)N[C@@H](CS)C(=O)NCC(=O)O)C(=O)O` [GSH, reduced glutathione], the inhibition (commonly the drop in the measured response relative to a control, in per cent) at 500 µM worked out at 60%.

Source of the values: publication PMC5328913 (Redox Biology, 2017).
